What was measured:
[1] = target: T1, AKT1 WT (Homo sapiens, UniProt P31749); test: Live cell target engagement by NanoBRET competitive probe displacement, AKT1 WT; assay type: binding; settings: transfected HEK293 cells, 2 h at 37° C., read-out: AKT1 WT IC50: GeoMean IC50
T1 construct: expressed in transfected cells; host or cells: HEK293

[2] = target: T2, AKT1 E17K (Homo sapiens, UniProt P31749, E17K); test: Live cell target engagement by NanoBRET competitive probe displacement, AKT1 E17K; assay type: binding; settings: transfected HEK293 cells, 2 h at 37° C., read-out: AKT1 E17K IC50: GeoMean IC50
T2 construct: expressed in transfected cells; host or cells: HEK293
T2 sequence (P31749 whole entry E17K): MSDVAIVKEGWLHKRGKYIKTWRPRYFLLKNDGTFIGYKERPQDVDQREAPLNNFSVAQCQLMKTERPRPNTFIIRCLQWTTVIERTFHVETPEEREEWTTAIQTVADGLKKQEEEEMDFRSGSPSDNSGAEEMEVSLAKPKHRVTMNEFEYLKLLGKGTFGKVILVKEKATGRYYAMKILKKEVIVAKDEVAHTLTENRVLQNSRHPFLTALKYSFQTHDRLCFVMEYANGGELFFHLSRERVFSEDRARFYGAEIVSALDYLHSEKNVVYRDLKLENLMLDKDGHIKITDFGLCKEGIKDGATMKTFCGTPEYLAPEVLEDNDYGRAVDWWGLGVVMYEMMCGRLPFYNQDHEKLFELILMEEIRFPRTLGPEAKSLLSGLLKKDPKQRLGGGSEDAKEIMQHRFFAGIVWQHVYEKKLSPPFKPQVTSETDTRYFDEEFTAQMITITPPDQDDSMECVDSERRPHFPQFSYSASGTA

[3] = target: T3, AKT2 (Homo sapiens, UniProt P31751); test: Live cell target engagement by NanoBRET competitive probe displacement, AKT2; assay type: binding; settings: transfected HEK293 cells, 2 h at 37° C., read-out: AKT2 IC50: GeoMean IC50
T3 construct: expressed in transfected cells; host or cells: HEK293
T3 sequence (P31751 whole entry): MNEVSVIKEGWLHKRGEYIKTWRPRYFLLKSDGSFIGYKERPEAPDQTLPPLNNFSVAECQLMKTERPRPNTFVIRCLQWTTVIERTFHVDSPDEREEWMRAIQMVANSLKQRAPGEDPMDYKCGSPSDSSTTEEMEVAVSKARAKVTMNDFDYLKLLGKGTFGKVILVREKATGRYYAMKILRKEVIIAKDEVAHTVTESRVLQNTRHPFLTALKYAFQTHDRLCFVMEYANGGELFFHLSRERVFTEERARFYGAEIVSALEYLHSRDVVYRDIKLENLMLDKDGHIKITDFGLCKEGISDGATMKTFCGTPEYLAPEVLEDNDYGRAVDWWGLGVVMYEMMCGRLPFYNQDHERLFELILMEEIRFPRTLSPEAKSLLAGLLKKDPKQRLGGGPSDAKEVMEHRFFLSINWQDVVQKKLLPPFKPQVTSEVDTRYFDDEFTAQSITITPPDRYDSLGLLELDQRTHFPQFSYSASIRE

[4] = test system: LAPC4 prostate cancer cells, which express the AKT1 E17K allele; test: Antiproliferative effects in LAPC4 cells (CellTiter Glo, 72 h); assay type: cell-based; settings: Homo sapiens, LAPC4, 72 h, read-out: LAPC4 proliferation IC50: GeoMean IC50
Procedure, shortened: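 IC50 values come from Hill-equation fitting of luminescence (cellular ATP) after 72 h compound exposure. Treated wells held 1,000 cells each, with compound delivered as DMSO dilutions. Culture medium was IMDM plus 12% FBS.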

T1 sequence (P31749 whole entry): as the sequence (P31749 whole entry E17K) above, with K17E counted along it

| SMILES | IC50 [1] [nM] | IC50 [2] [nM] | IC50 [3] [nM] | IC50 [4] [nM] |
| --- | --- | --- | --- | --- |
| Nc1ncccc1-c1nc2ccc(-c3ccccc3)nc2n1-c1ccc2c(c1)CC[C@@H]2NC(=O)c1cc(F)c(O)c(C=O)c1 [Example 8, N-[(1S)-5-[2-(2-aminopyridin-3-yl)-5-phenylimidazo[4,5-b]pyridin-3-yl]-2,3-dihydro-1H-inden-1-yl]-3-fluoro-5-formyl-4-hydroxybenzamide] | 10 to 100 | 10 to 100 | 100 to 2000 | 10 to 100 |
| [2H]C(=O)c1cc(C(=O)N[C@H]2CCc3cc(-n4c(-c5cccnc5N)nc5ccc(-n6ccc(F)n6)nc54)ccc32)ccc1O [Example 190, (S)—N-(5-(2-(2-aminopyridin-3-yl)-5-(3-fluoro-1H-pyrazol-1-yl)-3H-imidazo[4,5-b]pyridin-3-yl)-2,3-dihydro-1-H-inden-1-yl)-3-(formyl-d)-4-hydroxybenzamide] | 100 to 2000 | 10 to 100 | 100 to 2000 | 100 to 2000 |
| Cc1cc(C(=O)N[C@H]2CCc3cc(-n4c(-c5cccnc5N)nc5ccc(-c6ccccc6)nc54)ccc32)cc(C=O)c1O [Example 41, N-[(1S)-5-[2-(2-aminopyridin-3-yl)-5-phenylimidazo[4,5-b]pyridin-3-yl]-2,3-dihydro-1H-inden-1-yl]-3-formyl-4-hydroxy-5-methylbenzamide] | 100 to 2000 | 100 to 2000 | ≥ 2000 | 100 to 2000 |
| Nc1ncccc1-c1nc2ccc(-c3ccccc3)nc2n1-c1ccc2c(c1)CC[C@@H]2NC(=O)c1cnn2ccc(O)c(C=O)c12 [Example 54, N-[(1S)-5-[2-(2-aminopyridin-3-yl)-5-phenylimidazo[4,5-b]pyridin-3-yl]-2,3-dihydro-1H-inden-1-yl]-4-formyl-5-hydroxypyrazolo[1,5-a]pyridine-3-carboxamide] | 10 to 100 | 100 to 2000 | 100 to 2000 | ≥ 2000 |
| Cc1coc(-c2ccc3nc(-c4cccnc4N)n(-c4ccc5c(c4)CC[C@@H]5NC(=O)c4ccc(O)c(C=O)c4)c3n2)n1 [Example 178, N-[(1S)-5-[2-(2-aminopyridin-3-yl)-5-(4-methyl-1,3-oxazol-2-yl)imidazo[4,5-b]pyridin-3-yl]-2,3-dihydro-1H-inden-1-yl]-3-formyl-4-hydroxybenzamide] | 10 to 100 | 10 to 100 | 100 to 2000 | 10 to 100 |
| Nc1ncccc1-c1nc2ccc(-c3cnccn3)nc2n1-c1ccc2c(c1)CC[C@@H]2NC(=O)c1cc(C=O)c2[nH]ncc2c1 [Example 73, (S)—N-(5-(2-(2-aminopyridin-3-yl)-5-(pyrazin-2-yl)-3H-imidazo[4,5-b]pyridin-3-yl)-2,3-dihydro-1H-inden-1-yl)-7-formyl-1H-indazole-5-carboxamide] | 10 to 100 | < 10 | 100 to 2000 | 10 to 100 |
| CC(=O)Nc1ccc(C(=O)N[C@H]2CCc3cc(-n4c(-c5cccnc5N)nc5ccc(N6CCOCC6)nc54)ccc32)cc1C=O [Example 53, N-[(1S)-5-[2-(2-aminopyridin-3-yl)-5-(morpholin-4-yl)imidazo[4,5-b]pyridin-3-yl]-2,3-dihydro-1H-inden-1-yl]-4-acetamido-3-formylbenzamide] | 10 to 100 | < 10 | 100 to 2000 | 100 to 2000 |
| Nc1ncccc1-c1nc2ccc(-c3ncco3)nc2n1-c1ccc2c(c1)CC[C@@H]2NC(=O)c1ccc(O)c(C=O)c1 [Example 121, (S)—N-(5-(2-(2-aminopyridin-3-yl)-5-(oxazol-2-yl)-3H-imidazo[4,5-b]pyridin-3-yl)-2,3-dihydro-1H-inden-1-yl)-3-formyl-4-hydroxybenzamide] | 10 to 100 | < 10 | 100 to 2000 | 10 to 100 |
| Nc1ncccc1-c1nc2ccc(-n3cc(CO)cn3)nc2n1-c1ccc2c(c1)CC[C@@H]2NC(=O)c1cc(C=O)c(O)cc1F [Example 138, (S)—N-(5-(2-(2-aminopyridin-3-yl)-5-(4-(hydroxymethyl)-1H-pyrazol-1-yl)-3H-imidazo[4,5-b]pyridin-3-yl)-2,3-dihydro-1H-inden-1-yl)-2-fluoro-5-formyl-4-hydroxybenzamide] | 100 to 2000 | 10 to 100 | 100 to 2000 | 10 to 100 |
| COc1cnc(-c2ccc3nc(-c4cccnc4N)n(-c4ccc5c(c4)CC[C@@H]5NC(=O)c4ccc(O)c(C=O)c4)c3n2)cn1 [Example 71, (S)—N-(5-(2-(2-aminopyridin-3-yl)-5-(5-methoxypyrazin-2-yl)-3H-imidazo[4,5-b]pyridin-3-yl)-2,3-dihydro-1H-inden-1-yl)-3-formyl-4-hydroxybenzamide] | 10 to 100 | 10 to 100 | 100 to 2000 | 10 to 100 |
| CN(C)C(=O)Nc1ccc(C(=O)N[C@H]2CCc3cc(-n4c(-c5cccnc5N)nc5ccc(-n6ccc(F)n6)nc54)ccc32)cc1C=O [Example 122, N-[(1S)-5-[2-(2-aminopyridin-3-yl)-5-(3-fluoropyrazol-1-yl)imidazo[4,5-b]pyridin-3-yl]-2,3-dihydro-1H-inden-1-yl]-4-[(dimethylcarbamoyl)amino]-3-formylbenzamide] | 10 to 100 | < 10 | 100 to 2000 | 10 to 100 |
| [2H]C(=O)c1cc(C(=O)N[C@H]2CCc3cc(-n4c(-c5cccnc5N)nc5ccc(-n6cccn6)nc54)ccc32)c(F)c(F)c1O [Example 204, (S)—N-(5-(2-(2-aminopyridin-3-yl)-5-(1H-pyrazol-1-yl)-3H-imidazo[4,5-b]pyridin-3-yl)-2,3-dihydro-1H-inden-1-yl)-2,3-difluoro-5-(formyl-d)-4-hydroxybenzamide] | < 10 | < 10 | 10 to 100 | 10 to 100 |
| CN(C)c1nc2cc(C(=O)N[C@H]3CCc4cc(-n5c(-c6cccnc6N)nc6ccc(-n7cccn7)nc65)ccc43)cc(C=O)c2[nH]1 [Example 175, (S)—N-(5-(2-(2-aminopyridin-3-yl)-5-(1H-pyrazol-1-yl)-3H-imidazo[4,5-b]pyridin-3-yl)-2,3-dihydro-1H-inden-1-yl)-2-(dimethylamino)-7-formyl-1H-benzo[d]imidazole-5-carboxamide] | < 10 | < 10 | 10 to 100 | < 10 |
| CC(=O)Nc1ccc(C(=O)N[C@H]2CCc3cc(-n4c(-c5cccnc5N)nc5ccc(C)nc54)ccc32)cc1C=O [Example 45, N-[(1S)-5-[2-(2-aminopyridin-3-yl)-5-methylimidazo[4,5-b]pyridin-3-yl]-2,3-dihydro-1H-inden-1-yl]-4-acetamido-3-formylbenzamide] | 100 to 2000 | 100 to 2000 | ≥ 2000 | 100 to 2000 |
| [N-]=[N+]=Nc1cc(O)c(C=O)cc1C(=O)N[C@H]1CCc2cc(-n3c(-c4cccnc4N)nc4ccc(-n5cccn5)nc43)ccc21 [Example 235, N-[(1S)-5-[2-(2-aminopyridin-3-yl)-5-(pyrazol-1-yl)imidazo[4,5-b]pyridin-3-yl]-2,3-dihydro-1H-inden-1-yl]-2-azido-5-formyl-4-hydroxybenzamide] | 100 to 2000 | 10 to 100 | 100 to 2000 | 100 to 2000 |
| CS(=O)(=O)Nc1ccc(C(=O)N[C@H]2CCc3cc(-n4c(-c5cccnc5N)nc5ccc(-c6ccccc6)nc54)ccc32)cc1C=O [Example 51, N-[(1S)-5-[2-(2-aminopyridin-3-yl)-5-phenylimidazo[4,5-b]pyridin-3-yl]-2,3-dihydro-1H-inden-1-yl]-3-formyl-4-methanesulfonamidobenzamide] | 10 to 100 | < 10 | 10 to 100 | 10 to 100 |
| Cc1ccc(-c2nc3ccc(-n4cccn4)nc3n2-c2ccc3c(c2)CC[C@@H]3NC(=O)c2ccc(O)c(C=O)c2)c(N)n1 [Example 166, (S)—N-(5-(2-(2-amino-6-methylpyridin-3-yl)-5-(1H-pyrazol-1-yl)-3H-imidazo[4,5-b]pyridin-3-yl)-2,3-dihydro-1H-inden-1-yl)-3-formyl-4-hydroxybenzamide] | ≥ 2000 | ≥ 2000 | ≥ 2000 | ≥ 2000 |
| N#Cc1cc(-n2cccn2)nc2c1nc(-c1cccnc1N)n2-c1ccc2c(c1)CC[C@@H]2NC(=O)c1ccc(O)c(C=O)c1 [Example 209, N-[(1S)-5-[2-(2-aminopyridin-3-yl)-7-cyano-5-(pyrazol-1-yl)imidazo[4,5-b]pyridin-3-yl]-2,3-dihydro-1H-inden-1-yl]-3-formyl-4-hydroxybenzamide] | 10 to 100 | 10 to 100 | 100 to 2000 | 10 to 100 |
| Nc1ncccc1-c1nc2ccc(-n3cc4c(n3)COC4)nc2n1-c1ccc2c(c1)CC[C@@H]2NC(=O)c1ccc(O)c(C=O)c1 [Example 207, N-[(1S)-5-[2-(2-aminopyridin-3-yl)-5-{4H,6H-furo[3,4-c]pyrazol-2-yl}imidazo[4,5-b]pyridin-3-yl]-2,3-dihydro-1H-inden-1-yl]-3-formyl-4-hydroxybenzamide] | 10 to 100 | 10 to 100 | 100 to 2000 | 100 to 2000 |
| Nc1ncccc1-c1nc2ccc(-c3cnccn3)nc2n1-c1ccc2c(c1)CC[C@@H]2NC(=O)c1ccc(O)c(C=O)c1 [Example 29, N-[(1S)-5-[2-(2-aminopyridin-3-yl)-5-(pyrazin-2-yl)imidazo[4,5-b]pyridin-3-yl]-2,3-dihydro-1H-inden-1-yl]-3-formyl-4-hydroxybenzamide] | 10 to 100 | < 10 | 100 to 2000 | 10 to 100 |

Source: patent US20260053834A1, “COVALENT MODIFIERS OF AKT1 AND USES THEREOF” (Terremoto Biosciences, Inc., priority 2023, published 2026)
